Measurements published in PMC7613998, “Development of selective inhibitors of phosphatidylinositol 3-kinase C2α” (Nature Chemical Biology, 2022).

What was measured:
Assay in all cases: biochemical
Design in all cases: SelectScreen Z'-LYTE purified kinase panel, per cent inhibition, mean of two points
Conditions in all cases: (μM)=Km app
ALK = ALK (Homo sapiens, UniProt Q9UM73)
DNA-PK = biological target: T1, DNA-PK (Homo sapiens, UniProt P78527)
T1 construct: gene PRKDC

JAK1 = JAK1 (Homo sapiens, UniProt P23458)
JAK1, sequence (P23458 whole entry): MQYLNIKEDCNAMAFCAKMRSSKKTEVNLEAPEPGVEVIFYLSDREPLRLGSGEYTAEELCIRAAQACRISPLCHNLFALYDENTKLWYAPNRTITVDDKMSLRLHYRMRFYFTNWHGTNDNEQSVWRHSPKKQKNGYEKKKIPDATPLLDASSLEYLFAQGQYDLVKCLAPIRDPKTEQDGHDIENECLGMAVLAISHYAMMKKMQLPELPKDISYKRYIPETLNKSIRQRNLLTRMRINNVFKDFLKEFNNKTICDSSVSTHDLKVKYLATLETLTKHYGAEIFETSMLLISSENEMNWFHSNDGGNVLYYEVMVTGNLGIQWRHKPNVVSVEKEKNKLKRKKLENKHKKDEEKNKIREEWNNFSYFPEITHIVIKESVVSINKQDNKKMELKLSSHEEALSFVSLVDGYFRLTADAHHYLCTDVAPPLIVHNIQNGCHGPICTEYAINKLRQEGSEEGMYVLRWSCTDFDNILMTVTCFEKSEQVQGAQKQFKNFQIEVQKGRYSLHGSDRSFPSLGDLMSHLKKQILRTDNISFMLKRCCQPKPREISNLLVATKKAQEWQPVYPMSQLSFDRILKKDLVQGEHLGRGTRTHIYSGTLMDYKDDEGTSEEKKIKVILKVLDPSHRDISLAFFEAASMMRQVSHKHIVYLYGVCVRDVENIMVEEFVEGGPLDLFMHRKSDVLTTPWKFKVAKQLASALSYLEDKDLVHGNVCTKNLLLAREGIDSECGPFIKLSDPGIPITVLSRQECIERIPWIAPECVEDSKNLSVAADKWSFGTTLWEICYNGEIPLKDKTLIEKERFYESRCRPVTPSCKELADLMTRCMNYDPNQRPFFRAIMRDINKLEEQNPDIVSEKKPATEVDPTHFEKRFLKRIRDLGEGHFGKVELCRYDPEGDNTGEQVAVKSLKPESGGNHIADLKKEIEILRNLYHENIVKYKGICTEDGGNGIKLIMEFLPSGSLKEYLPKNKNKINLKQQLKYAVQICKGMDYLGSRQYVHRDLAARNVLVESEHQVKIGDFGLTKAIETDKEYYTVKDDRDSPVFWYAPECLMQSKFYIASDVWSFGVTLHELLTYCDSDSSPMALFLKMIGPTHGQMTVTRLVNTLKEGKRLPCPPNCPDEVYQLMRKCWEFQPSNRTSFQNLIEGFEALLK

JAK2 JH1 JH2 = biological target: T2, JAK2 JH1 JH2 (Homo sapiens, UniProt O60674)
T2 construct: JH1 JH2
T2 sequence (O60674 whole entry): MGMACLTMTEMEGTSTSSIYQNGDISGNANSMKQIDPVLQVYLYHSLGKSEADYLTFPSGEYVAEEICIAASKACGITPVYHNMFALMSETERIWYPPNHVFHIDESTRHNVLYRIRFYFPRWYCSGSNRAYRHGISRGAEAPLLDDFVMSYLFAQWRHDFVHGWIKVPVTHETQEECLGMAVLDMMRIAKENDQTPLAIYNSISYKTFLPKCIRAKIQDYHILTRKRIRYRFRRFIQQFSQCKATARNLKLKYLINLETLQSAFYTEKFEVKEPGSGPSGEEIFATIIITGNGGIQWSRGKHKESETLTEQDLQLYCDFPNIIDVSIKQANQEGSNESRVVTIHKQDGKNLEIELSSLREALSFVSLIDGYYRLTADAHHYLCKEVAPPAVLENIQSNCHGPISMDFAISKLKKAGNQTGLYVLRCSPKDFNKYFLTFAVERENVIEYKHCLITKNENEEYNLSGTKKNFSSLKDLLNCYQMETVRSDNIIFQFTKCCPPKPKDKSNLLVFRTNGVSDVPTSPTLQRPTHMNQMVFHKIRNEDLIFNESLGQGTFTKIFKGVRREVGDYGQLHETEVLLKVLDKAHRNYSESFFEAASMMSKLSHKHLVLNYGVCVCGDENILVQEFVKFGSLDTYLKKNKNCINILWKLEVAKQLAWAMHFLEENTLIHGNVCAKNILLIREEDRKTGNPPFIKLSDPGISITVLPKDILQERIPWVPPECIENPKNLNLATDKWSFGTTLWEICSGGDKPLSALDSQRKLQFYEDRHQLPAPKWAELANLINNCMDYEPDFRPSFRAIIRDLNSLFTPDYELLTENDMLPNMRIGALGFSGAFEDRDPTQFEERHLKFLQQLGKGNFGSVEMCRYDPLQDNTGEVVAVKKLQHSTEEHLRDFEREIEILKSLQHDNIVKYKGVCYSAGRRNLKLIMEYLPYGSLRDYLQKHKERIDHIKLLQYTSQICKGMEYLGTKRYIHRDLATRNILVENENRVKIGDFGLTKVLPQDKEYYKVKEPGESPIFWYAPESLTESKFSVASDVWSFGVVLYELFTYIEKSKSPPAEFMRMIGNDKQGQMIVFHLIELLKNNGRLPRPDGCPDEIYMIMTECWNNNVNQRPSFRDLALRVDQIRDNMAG

KIT = KIT (Homo sapiens, UniProt P10721)
PLK3 = PLK3 (Homo sapiens, UniProt Q9H4B4)
PRKCE (PKC epsilon) = biological target: T3, PRKCE (PKC epsilon) (Homo sapiens, UniProt Q02156)
T3 sequence (Q02156 1-737): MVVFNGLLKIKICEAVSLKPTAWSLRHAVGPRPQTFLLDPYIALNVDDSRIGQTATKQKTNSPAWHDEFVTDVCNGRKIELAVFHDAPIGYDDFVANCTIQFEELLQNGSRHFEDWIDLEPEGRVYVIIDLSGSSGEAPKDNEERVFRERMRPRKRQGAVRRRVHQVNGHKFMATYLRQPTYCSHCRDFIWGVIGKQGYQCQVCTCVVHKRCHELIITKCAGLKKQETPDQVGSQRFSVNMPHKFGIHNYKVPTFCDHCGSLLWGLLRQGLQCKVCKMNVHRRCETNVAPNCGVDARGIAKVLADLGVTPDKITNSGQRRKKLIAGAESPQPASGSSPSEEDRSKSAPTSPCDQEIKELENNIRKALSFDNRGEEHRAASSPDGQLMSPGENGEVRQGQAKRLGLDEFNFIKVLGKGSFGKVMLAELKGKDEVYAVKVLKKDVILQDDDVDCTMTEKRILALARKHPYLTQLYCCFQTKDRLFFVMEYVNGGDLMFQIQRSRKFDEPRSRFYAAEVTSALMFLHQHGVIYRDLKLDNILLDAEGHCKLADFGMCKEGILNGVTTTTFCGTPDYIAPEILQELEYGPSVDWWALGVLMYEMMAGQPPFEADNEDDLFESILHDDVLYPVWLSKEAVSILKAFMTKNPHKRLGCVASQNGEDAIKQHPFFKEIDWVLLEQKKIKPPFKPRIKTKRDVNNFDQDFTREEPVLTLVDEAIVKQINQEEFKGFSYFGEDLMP

TEK (Tie2) = TEK (Tie2) (Homo sapiens, UniProt Q02763)
TEK (Tie2), sequence (Q02763 whole entry): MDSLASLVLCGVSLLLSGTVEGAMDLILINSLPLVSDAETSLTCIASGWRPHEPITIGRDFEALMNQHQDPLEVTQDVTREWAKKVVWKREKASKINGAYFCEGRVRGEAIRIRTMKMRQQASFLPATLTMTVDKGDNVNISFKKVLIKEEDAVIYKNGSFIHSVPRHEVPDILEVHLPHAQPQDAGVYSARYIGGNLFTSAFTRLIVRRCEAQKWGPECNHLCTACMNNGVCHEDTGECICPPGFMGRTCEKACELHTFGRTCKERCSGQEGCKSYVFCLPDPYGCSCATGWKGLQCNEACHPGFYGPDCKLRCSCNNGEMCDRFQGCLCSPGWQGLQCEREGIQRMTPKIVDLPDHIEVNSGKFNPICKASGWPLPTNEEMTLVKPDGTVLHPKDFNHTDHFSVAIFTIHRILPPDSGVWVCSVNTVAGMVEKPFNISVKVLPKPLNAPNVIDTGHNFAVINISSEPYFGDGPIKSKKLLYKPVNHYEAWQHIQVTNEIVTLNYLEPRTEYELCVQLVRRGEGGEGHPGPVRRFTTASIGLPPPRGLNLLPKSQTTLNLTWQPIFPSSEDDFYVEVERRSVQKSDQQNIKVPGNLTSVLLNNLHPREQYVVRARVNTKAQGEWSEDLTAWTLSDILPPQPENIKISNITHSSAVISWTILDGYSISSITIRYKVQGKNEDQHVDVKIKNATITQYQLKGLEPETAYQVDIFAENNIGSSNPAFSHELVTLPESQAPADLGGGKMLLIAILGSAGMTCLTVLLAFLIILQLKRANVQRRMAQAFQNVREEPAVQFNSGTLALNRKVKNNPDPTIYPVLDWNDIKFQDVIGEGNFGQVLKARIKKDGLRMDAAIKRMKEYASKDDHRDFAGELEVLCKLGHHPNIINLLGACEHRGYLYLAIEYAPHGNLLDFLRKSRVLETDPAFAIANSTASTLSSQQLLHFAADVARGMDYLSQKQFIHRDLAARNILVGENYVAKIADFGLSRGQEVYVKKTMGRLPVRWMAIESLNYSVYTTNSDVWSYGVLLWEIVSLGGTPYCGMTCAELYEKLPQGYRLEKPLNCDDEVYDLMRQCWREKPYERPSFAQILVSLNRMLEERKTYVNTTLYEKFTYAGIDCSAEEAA

ZAP70 = biological target: T4, ZAP70 (Homo sapiens, UniProt P43403)
T4 sequence (P43403 1-619): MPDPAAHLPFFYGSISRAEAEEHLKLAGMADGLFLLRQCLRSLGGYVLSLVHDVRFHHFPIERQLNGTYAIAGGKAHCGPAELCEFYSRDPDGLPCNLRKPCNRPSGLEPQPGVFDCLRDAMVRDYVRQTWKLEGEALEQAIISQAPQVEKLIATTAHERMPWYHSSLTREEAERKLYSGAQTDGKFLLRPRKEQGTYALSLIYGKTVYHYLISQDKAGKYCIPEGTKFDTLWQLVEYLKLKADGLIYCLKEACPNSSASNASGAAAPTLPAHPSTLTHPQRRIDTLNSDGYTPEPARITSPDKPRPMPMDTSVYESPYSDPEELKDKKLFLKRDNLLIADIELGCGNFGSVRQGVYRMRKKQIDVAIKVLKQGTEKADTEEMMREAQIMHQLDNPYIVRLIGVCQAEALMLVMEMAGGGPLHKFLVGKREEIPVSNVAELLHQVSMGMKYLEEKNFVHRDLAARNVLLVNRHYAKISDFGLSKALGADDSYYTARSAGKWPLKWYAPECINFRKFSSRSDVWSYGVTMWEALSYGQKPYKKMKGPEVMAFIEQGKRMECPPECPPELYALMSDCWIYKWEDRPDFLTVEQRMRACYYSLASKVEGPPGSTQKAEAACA

ALK, sequence (Q9UM73 whole entry): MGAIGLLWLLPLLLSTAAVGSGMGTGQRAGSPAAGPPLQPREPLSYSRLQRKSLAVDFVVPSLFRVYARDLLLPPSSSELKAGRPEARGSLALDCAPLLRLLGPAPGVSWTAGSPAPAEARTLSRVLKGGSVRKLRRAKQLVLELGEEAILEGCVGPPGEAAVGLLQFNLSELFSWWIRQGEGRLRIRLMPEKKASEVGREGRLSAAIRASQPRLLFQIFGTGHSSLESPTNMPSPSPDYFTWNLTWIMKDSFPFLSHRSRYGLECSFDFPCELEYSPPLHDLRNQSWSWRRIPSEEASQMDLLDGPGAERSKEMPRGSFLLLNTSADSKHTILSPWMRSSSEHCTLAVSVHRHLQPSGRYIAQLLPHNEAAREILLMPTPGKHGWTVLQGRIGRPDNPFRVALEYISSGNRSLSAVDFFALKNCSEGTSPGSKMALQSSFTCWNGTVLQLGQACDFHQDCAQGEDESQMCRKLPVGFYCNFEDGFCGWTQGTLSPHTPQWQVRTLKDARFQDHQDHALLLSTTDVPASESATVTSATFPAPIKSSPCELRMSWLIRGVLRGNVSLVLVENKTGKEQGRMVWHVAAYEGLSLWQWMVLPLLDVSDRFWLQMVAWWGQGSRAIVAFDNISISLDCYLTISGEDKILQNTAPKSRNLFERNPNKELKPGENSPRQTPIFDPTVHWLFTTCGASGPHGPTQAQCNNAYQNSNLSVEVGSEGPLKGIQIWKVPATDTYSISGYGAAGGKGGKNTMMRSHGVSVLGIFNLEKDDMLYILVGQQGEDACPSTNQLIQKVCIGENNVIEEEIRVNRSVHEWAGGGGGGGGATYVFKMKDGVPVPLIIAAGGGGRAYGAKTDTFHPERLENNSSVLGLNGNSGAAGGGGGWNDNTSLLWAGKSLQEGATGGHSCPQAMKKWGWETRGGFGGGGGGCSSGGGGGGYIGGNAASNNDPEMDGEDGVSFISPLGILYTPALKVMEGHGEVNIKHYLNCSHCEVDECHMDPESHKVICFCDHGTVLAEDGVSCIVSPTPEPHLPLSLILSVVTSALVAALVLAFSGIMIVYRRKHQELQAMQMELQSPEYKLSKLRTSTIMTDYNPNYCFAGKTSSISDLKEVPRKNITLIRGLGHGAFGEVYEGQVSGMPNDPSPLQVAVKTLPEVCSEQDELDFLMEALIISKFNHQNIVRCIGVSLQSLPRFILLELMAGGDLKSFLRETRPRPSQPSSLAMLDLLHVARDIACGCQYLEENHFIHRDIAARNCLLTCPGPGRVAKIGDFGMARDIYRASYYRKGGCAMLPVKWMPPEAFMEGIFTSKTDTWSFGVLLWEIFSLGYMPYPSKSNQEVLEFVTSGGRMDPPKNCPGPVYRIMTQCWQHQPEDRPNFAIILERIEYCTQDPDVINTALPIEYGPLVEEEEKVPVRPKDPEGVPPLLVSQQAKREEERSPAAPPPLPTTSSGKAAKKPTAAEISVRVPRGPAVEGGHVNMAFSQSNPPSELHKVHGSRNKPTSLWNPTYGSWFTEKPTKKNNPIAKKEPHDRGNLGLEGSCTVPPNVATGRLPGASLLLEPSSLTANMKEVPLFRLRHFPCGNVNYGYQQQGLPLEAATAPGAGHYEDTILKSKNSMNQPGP

For `O=C(CSc1nc2nccnc2c(=O)n1CCc1ccccc1)Nc1nccs1` [compound 1, PITCOIN1], the inhibition at 1 µM (ALK) was 8.08%, the inhibition at 3 µM (ALK) was 8.57% and the inhibition at 10 µM (ALK) was 8.82%. The inhibition at 1 µM (DNA-PK) was 13.4%, the inhibition at 3 µM (DNA-PK) was 14.1% and the inhibition at 10 µM (DNA-PK) was 12.5%. It also gave an inhibition at 1 µM (JAK1) of 6.58%, an inhibition at 3 µM (JAK1) of 2.72% and an inhibition at 10 µM (JAK1) of 0.0941%. For the same molecule, the inhibition at 1 µM (JAK2 JH1 JH2) was -0.97%, the inhibition at 3 µM (JAK2 JH1 JH2) was -0.0652% and the inhibition at 10 µM (JAK2 JH1 JH2) was -0.468%. The inhibition at 1 µM (KIT) was -11.3%, the inhibition at 3 µM (KIT) was 5.95% and the inhibition at 10 µM (KIT) was -5.32%. For the same molecule, the inhibition at 1 µM (PLK3) was 3.02%, the inhibition at 3 µM (PLK3) was 3.24% and the inhibition at 10 µM (PLK3) was 5.6%. The inhibition at 1 µM (PRKCE (PKC epsilon)) was -11.8%, the inhibition at 3 µM (PRKCE (PKC epsilon)) was 23.9% and the inhibition at 10 µM (PRKCE (PKC epsilon)) was -9.1%. The inhibition at 1 µM (TEK (Tie2)) was 7.5%, the inhibition at 3 µM (TEK (Tie2)) was 5.07% and the inhibition at 10 µM (TEK (Tie2)) was 3.39%. It also gave an inhibition at 1 µM (ZAP70) of 13.7%, an inhibition at 3 µM (ZAP70) of 11.6% and an inhibition at 10 µM (ZAP70) of 9.43%.

With `CS(=O)(=O)Nc1cccc(-c2csc(NC(=O)CSc3nc4nccnc4c(=O)n3CCc3ccccc3)n2)c1` [compound 3, PITCOIN3] the inhibition at 1 µM (ALK) was 17.2%, the inhibition at 3 µM (ALK) was 10.4% and the inhibition at 10 µM (ALK) was 10.9%. The inhibition at 1 µM (DNA-PK) was 11%, the inhibition at 3 µM (DNA-PK) was 23.7% and the inhibition at 10 µM (DNA-PK) was 23.3%. For the same molecule, the inhibition at 1 µM (JAK1) was 2.76%, the inhibition at 3 µM (JAK1) was 4.25% and the inhibition at 10 µM (JAK1) was 0.516%. For the same molecule, the inhibition at 1 µM (JAK2 JH1 JH2) was 0.755%, the inhibition at 3 µM (JAK2 JH1 JH2) was 0.839% and the inhibition at 10 µM (JAK2 JH1 JH2) was 1.69%. For the same molecule, the inhibition at 1 µM (KIT) was -9.5%, the inhibition at 3 µM (KIT) was 14.5% and the inhibition at 10 µM (KIT) was -3.62%. For the same molecule, the inhibition at 1 µM (PLK3) was 3.58%, the inhibition at 3 µM (PLK3) was 4.83% and the inhibition at 10 µM (PLK3) was 4.26%. The inhibition at 1 µM (PRKCE (PKC epsilon)) was -17.8%, the inhibition at 3 µM (PRKCE (PKC epsilon)) was -1.73% and the inhibition at 10 µM (PRKCE (PKC epsilon)) was -22.6%. The inhibition at 1 µM (TEK (Tie2)) was 8.6%, the inhibition at 3 µM (TEK (Tie2)) was 10.7% and the inhibition at 10 µM (TEK (Tie2)) was 5.64%. It also gave an inhibition at 1 µM (ZAP70) of 17.4%, an inhibition at 3 µM (ZAP70) of 12.6% and an inhibition at 10 µM (ZAP70) of 14.5%.
